pIC50: −log10 of the molar value. Where a name gives a salt, the structure may show the parent alone.
biological target: T1, human EP3 receptor (Homo sapiens, UniProt P43115); assay: Cellular in vitro assay for determining EP3 receptor activity (human EP3 cell line, sulprostone-stimulated calcium luminescence); format: cell-based; settings: CHO cells expressing human EP3 and mitochondrial Clytin; antagonist mode, sulprostone at EC50; read-out: EP3 CHO mtCLY ANTAG IC50
T1 construct: expressed in transfected cells; host or cells: CHO K1 (Chinese Hamster Ovary), stably co-transfected with Galpha16 and mitochondrial clytin
T1 sequence (P43115 1-390): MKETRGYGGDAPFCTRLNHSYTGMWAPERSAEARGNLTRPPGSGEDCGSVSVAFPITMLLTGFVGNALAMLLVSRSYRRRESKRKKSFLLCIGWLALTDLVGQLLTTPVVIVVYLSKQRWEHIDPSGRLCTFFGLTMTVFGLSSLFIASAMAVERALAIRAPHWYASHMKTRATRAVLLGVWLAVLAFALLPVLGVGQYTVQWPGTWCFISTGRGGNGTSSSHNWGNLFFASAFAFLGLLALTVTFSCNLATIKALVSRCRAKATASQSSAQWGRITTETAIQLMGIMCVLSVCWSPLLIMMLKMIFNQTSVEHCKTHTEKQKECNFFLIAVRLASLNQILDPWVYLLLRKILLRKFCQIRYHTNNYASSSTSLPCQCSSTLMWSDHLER
In short: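 Antagonist activity was measured as inhibition of the luminescent calcium signal elicited by EC50 sulprostone, following 10 min compound pretreatment. The cell line was recombinant CHO K1 co-expressing human EP3, Gα16 and the photoprotein Clytin, reconstituted with coelenterazine.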

pIC50	Compound
9.28	O=C(N[C@H](CCO)c1ccc(F)cc1)c1nn2cc(-c3ccc(Cl)c(Cl)c3)[nH]c(=O)c2c1C1CC1 [6-425]
7.92	Cc1ccc(-c2cn3nc(C(=O)NC(C)CN4CCOCC4)c(C4CC4)c3c(=O)[nH]2)cc1C (racemic) [6-450]
8.47	CC(C)(O)[C@@H](NC(=O)c1nn2cc(-c3ccc(Cl)c(F)c3)[nH]c(=O)c2c1C1CC(F)(F)C1)c1ccc(F)cc1 [6-555]
8.92	Cc1cc(-c2cn3nc(C(=O)N[C@@H](C)C4CC4)c(C(F)(F)C(F)(F)F)c3c(=O)[nH]2)ccc1Cl [6-478]
8.53	Cc1cc(-c2cn3nc(C(=O)N[C@@H](C)C(C)C)c(C4CC4)c3c(=O)[nH]2)ccc1Cl [6-302]
8.80	COC[C@@H](NC(=O)c1cc2c(=O)[nH]c(-c3ccc4c(c3)OCCO4)cn2n1)c1ccccc1 [6-49]
8.28	Cc1ccc(-c2[nH]c(=O)c3c(C4CC4)c(C(=O)N[C@@H](c4ccc(F)cc4)C(C)(C)O)nn3c2F)cc1Cl [6-664]
9.06	CC[C@@H](C)NC(=O)c1nn2cc(-c3ccc(C)c(Cl)c3)[nH]c(=O)c2c1C1CC1 [6-271]
8.08	O=C(NCCc1ccccc1)c1cc2c(=O)[nH]c(-c3ccc4ccccc4c3)cn2n1 [6-14]
8.12	COc1ccc(C(CCO)NC(=O)c2cc3c(=O)[nH]c(-c4ccc(C)c(C(F)(F)F)c4)cn3n2)cc1 (stereo not drawn) [6-32]
8.96	O=C(N[C@H](CCO)c1ccc(F)cc1)c1nn2cc(-c3ccc(Cl)c(C(F)F)c3)[nH]c(=O)c2c1C1CC1 [6-668]
8.70	Cc1cc(-c2cn3nc(C(=O)NC(C)C4CCC4)c(C(F)(F)F)c3c(=O)[nH]2)ccc1Cl (single isomer, unassigned) [6-224]
8.61	Cc1ccc(-c2cn3nc(C(=O)NC(CO)C(F)(F)F)c(C4CC4)c3c(=O)[nH]2)cc1C(F)(F)F (racemic) [6-248]
8.15	Cc1ccc(-c2cn3nc(C(=O)NC(CN(C)C)c4ccc(F)cc4)c(C4CC4)c3c(=O)[nH]2)cc1C (single isomer, unassigned) [6-445]
8.39	O=C(N[C@H](CCO)c1ccc(F)cc1)c1cc2c(=O)[nH]c(-c3ccc(Cl)c(Cl)c3)cn2n1 [6-635]
8.55	CC(NC(=O)c1cc2c(=O)[nH]c(-c3ccc4ccccc4c3)cn2n1)c1ccc(OCC(F)(F)F)cn1 (stereo not drawn) [6-6]
8.52	O=C(N[C@H](CCO)c1ccc(F)cc1)c1cc2c(=O)[nH]c(-c3ccc4ccccc4n3)cn2n1 [6-12]
8.25	Cc1ccc(-c2cn3nc(C(=O)NCC(N)C(F)(F)F)c(C(F)(F)F)c3c(=O)[nH]2)cc1C (racemic) [6-118]
8.81	Cc1cc(-c2cn3nc(C(=O)NC4(c5ccc(F)cc5)CN(C5CC5)C4)c(C4CC4)c3c(=O)[nH]2)ccc1Cl [6-345]
8.26	CN(C)CC(NC(=O)c1nn2cc(-c3ccc4ccccc4c3)[nH]c(=O)c2c1C(F)(F)F)c1ccc(F)cc1 (racemic) [6-506]

The remaining lines, values behind:

Compound	pIC50
Cc1cccc2ncc(-c3cn4nc(C(=O)N[C@H]5c6ccccc6C[C@H]5O)c(C(C)C)c4c(=O)[nH]3)cc12 [Example 4-69, N-[(7S,2R)-2-Hydroxy-2,3-dihydro-1H-inden-1-yl]-6-(5-methylquinolin-3-yl)-4-oxo-3-(propan-2-yl)-4,5-dihydropyrazolo[1,5-a]pyrazine-2-carboxamide]	8.70
CC(NC(=O)c1cc2c(=O)[nH]c(-c3ccc4ccccc4c3)cn2n1)c1ccc(Cl)cc1Cl (stereo not drawn) [Example 2-47, N-[1-(2,4-Dichlorphenyl)ethyl]-6-(2-naphthyl)-4-oxo-4,5-dihydropyrazolo[1,5-a]pyrazine-2-carboxamide]	8.49
Cc1cccc2ncc(-c3cn4nc(C(=O)NC(CCO)c5ccccc5Cl)c(C(C)C)c4c(=O)[nH]3)cc12 (stereo not drawn) [Example 4-44, N-[1-(2-Chlorophenyl)-3-hydroxypropyl]-3-isopropyl-6-(5-methyl-3-quinolyl)-4-oxo-5H-pyrazolo[1,5-a]pyrazine-2-carboxamide]	8.84
Cc1ccc(-c2cn3nc(C(=O)N[C@H](CCO)c4ccc(F)cc4)c(C4CC4)c3c(=O)[nH]2)cc1C [Example 1-83, 3-Cyclopropyl-6-(3,4-dimethylphenyl)-N-[(1R)-1-(4-fluorophenyl)-3-hydroxpropyl]-4-oxo-4,5-dihydropyrazolo[1,5-a]pyrazine-2-carboxamide]	9.28
Cc1cccc2ncc(-c3cn4nc(C(=O)NC(c5ccc(F)cc5)C(C)C)c(C(C)C)c4c(=O)[nH]3)cc12 (stereo not drawn) [Example 4-51, N-[1-(4-Fluorophenyl)-2-methylpropyl]-3-isopropyl-6-(5-methyl-3-quinolyl)-4-oxo-5H-pyrazolo[1,5-a]pyrazine-2-carboxamide]	8.39
Cc1c(C(=O)N[C@H](C)c2ccc(F)cc2)nn2cc(-c3ccc4ccccc4c3)[nH]c(=O)c12 [Example 1-45, N-[(1R)-1-(4-Fluorophenyl)ethyl]-3-methyl-6-(naphthalen-2-yl)-4-oxo-4,5-dihydropyrazolo[1,5-a]-pyrazine-2-carboxamide]	8.55
Cc1ccc(-c2cn3nc(C(=O)N[C@@H](C)CO)c(C4CC4)c3c(=O)[nH]2)cc1C [Example 1-155, 3-Cyclopropyl-6-(3,4-dimethylphenyl)-N-[(2S)-1-hydroxpropan-2-yl]-4-oxo-4,5-dihydropyrazolo-[1,5-a]pyrazine-2-carboxamide]	8.82
Cc1cccc2ncc(-c3cn4nc(C(=O)NCC(C)Cn5cccn5)c(C(C)C)c4c(=O)[nH]3)cc12 (stereo not drawn) [Example 4-30, 3-Isopropyl-N-[2-methyl-3-(1H-pyrazol-1-yl)propyl]-6-(5-methylquinolin-3-yl)-4-oxo-4,5-dihydropyrazolo[1,5-a]pyrazine-2-carboxamide]	8.57
CN1CCC(NC(=O)c2nn3cc(-c4ccc5ccccc5c4)[nH]c(=O)c3c2C(F)(F)F)(c2ccc(F)cc2)CC1 [Example 1-116, N-[4-(4-Fluorophenyl)-1-methylpiperidin-4-yl]-6-(naphthalen-2-yl)-4-oxo-3-(trifluoromethyl)-4,5-dihydropyrazolo[1,5-a]pyrazine-2-carboxamide]	8.02
Cc1cccc2ncc(-c3cn4nc(C(=O)NC(C)c5ccc(S(N)(=O)=O)cc5)c(C(C)C)c4c(=O)[nH]3)cc12 (stereo not drawn) [Example 4-53, 3-Isopropyl-6-(5-methyl-3-quinolyl)-4-oxo-N-[1-(4-sulfamoylphenyl)ethyl]-5H-pyrazolo[1,5-a]pyrazine-2-carboxamide]	8.96
Cc1ccc(-c2cn3nc(C(=O)N[C@@H](c4ccc(F)cc4)C(C)(C)O)c(C(F)(F)F)c3c(=O)[nH]2)cc1F [Example 1-147, 6-(3-Fluoro-4-methylphenyl)-N-[(15)-1-(4-fluorophenyl)-2-hydroxy-2-methylpropyl]-4-oxo-3-(trifluoromethyl)-4,5-dihydropyrazolo[1,5-a]pyrazine-2-carboxamide]	8.54
O=C(N[C@H](CCO)c1ccc(F)cc1)c1nn2cc(-c3ccc4ccccc4c3)[nH]c(=O)c2c1Cl [Example 1-120, 3-Chloro-N-[(1R)-1-(4-fluorophenyl)-3-hydroxypropyl]-6-(naphthalen-2-yl)-4-oxo-4,5-dihydropyrazolo[1,5-a]pyrazine-2-carboxamide]	9.31
O=C(NC(c1cccc(F)c1)C(F)F)c1cc2c(=O)[nH]c(-c3ccc4ccccc4c3)cn2n1 (stereo not drawn) [Example 2-13, N-[2,2-Difluoro-1-(3-fluorophenyl)ethyl]-6-(2-naphthyl)-4-oxo-4,5-dihydropyrazolo[1,5-a]pyrazine-2-carboxamide]	8.89
COc1cccc(C(CCO)NC(=O)c2nn3cc(-c4cnc5cccc(C)c5c4)[nH]c(=O)c3c2C(C)C)c1 (stereo not drawn) [Example 4-45, N-[3-Hydroxy-1-(3-methoxyphenyl)propyl]-3-isopropyl-6-(5-methyl-3-quinolyl)-4-oxo-5H-pyrazolo[1,5-a]pyrazine-2-carboxamide]	9.21
O=C(NC(CO)c1ccc(F)cc1)c1cc2c(=O)[nH]c(-c3ccc4ccccc4c3)cn2n1 (stereo not drawn) [Example 1-61, N-[1-(4-Fluorophenyl)-2-hydroxyethyl]-6-(2-naphthyl)-4-oxo-5H-pyrazolo[1 ,5-a]pyrazine-2-carboxamide]	8.38
Cc1nn(C(C)CNC(=O)c2cc3c(=O)[nH]c(-c4ccc5ccccc5c4)cn3n2)cc1Cl (stereo not drawn) [Example 2-18, N-[2-(4-Chlor-3-methyl-1H-pyrazol-1-yl)propyl]-6-(2-naphthyl)-4-oxo-4,5-dihydropyrazolo[1,5-a]pyrazine-2-carboxamide]	8.66
Cc1cccc2ncc(-c3cn4nc(C(=O)NCc5cc[nH]n5)c(C(C)C)c4c(=O)[nH]3)cc12 [Example 4-14, 6-(5-Methylquinolin-3-yl)-4-oxo-3-(propan-2-yl)-N-[(1H-pyrazol-3-yl)methyl]-4,5-dihydropyrazolo[1,5-a]pyrazine-2-carboxamide]	8.60
CC(C)(O)[C@@H](NC(=O)c1nn2cc(-c3ccc4ccccc4c3)[nH]c(=O)c2c1C(F)(F)F)c1ccc(F)cc1 [Example 1-19, N-[(1S)-1-(4-Fluorophenyl)-2-hydroxy-2-methylpropyl]-6-(naphthalen-2-yl)-4-oxo-3-(trifluoromethyl)-4,5-dihydropyrazolo[1,5-a]pyrazine-2-carboxamide]	9.15
O=C(NC1(c2ccc(F)cc2)CNC1)c1nn2cc(-c3ccc4ccccc4c3)[nH]c(=O)c2c1C(F)(F)F [Example 1-125, N-[3-(4-Fluorophenyflazetidin-3-yl]-6-(naphthalen-2-yl)-4-oxo-3-(trifluoromethyl)-4,5-dihydropyrazolo[1,5-a]pyrazine-2-carboxamide hydrochloride]	8.47

— US20220324865A1 (Bayer Aktiengesellschaft, priority 2018, published 2022)
